{"source": "patent EP4674418A1", "about": "“SOLUTION, FREEZE-DRIED FORMULATION, FREEZE-DRIED F[…] PACKAGE, INJECTION, AND INJECTION PREPARATION METHOD” (Ascentawits Pharmaceuticals, Ltd., priority 2023, dated 2024)", "key": {"[1]": {"test": "Saturated solubility of the drug in D5W solution under strong shaking", "assay_type": "physicochemical", "conditions": "5% glucose solution (D5W), saline or isotonic, thermodynamic from solid, shaken 2 minutes, filtered, room temperature 24 hours", "experimental": "The TH-302 sample was weighed accurately in an amount of about 60 mg, placed in a transparent vial, and added with 6 mL of 5% glucose solution (D5W). The resulting solution was shaken vigorously for 2 minutes to obtain a solubility- stock solution. It was observed that the solubility-stock solution contained insoluble substances. Thus, the solubility- stock solution was filtered and then became clear. […] This value was exactly the saturated solubility of the drug in D5W solution."}, "[2]": {"conditions": "concentrated injection with ethanol, dimethlyacetamide, polysorbate 80; mainly induced by dimethlyacetamide; WO2015013448A1; cited from earlier work"}, "[3]": {"test": "Solubility experiment of TH-302 (saturated solution method, HPLC)", "assay_type": "physicochemical", "conditions": "thermodynamic from solid", "experimental": "The solubility is measured in an experiment by the saturated solution method; that is, the solid TH-302 was directly charged into the solvent until insoluble matter or turbidity appears. After clarification for a period of time, the solution was directly filtered. The clarified filtrate was taken directly for determination of the concentration of TH-302. The resulting concentration is exactly the solubility of TH-302 in this solvent system. Please refer to Tables 1, 2, and 3 for specific solubility data.\nFor the method for measuring the concentration of TH-302 (mg/ml), please refer to the HPLC method described in the patent WO2008083101A1 owned by Threshold Pharmaceuticals Inc. (see Example 2. An Ethanol Formulation of TH302, for details); and the external standard method was used for quantification."}, "[4]": {"test": "Freeze-thaw cycle stability of freeze-dried formulations", "assay_type": "physicochemical", "conditions": "TH-302 active pharmaceutical ingredient used for the two batches", "experimental": "The freeze-thaw test was to place the sample in the dark at (-20°C±5°C) for 2 days, and at (25°C±5°C) for another 2 days, as a cycle. The HPLC purity of TH-302 in the freeze-dried samples was determined. Table 32: HPLC purity test data of TH-302 active pharmaceutical ingredient, two batches of prepared freeze-dried formulations, and the freeze-dried formulations after three freeze-thaw cycles (%)"}}, "note": "Like-named read-outs stand apart in the source and are kept apart here.", "data": [{"compound": "Cn1c(COP(=O)(NCCBr)NCCBr)cnc1[N+](=O)[O-]", "note": "[TH-302]", "values": [{"measurement": "solubility at 2 min", "setting": "[1]", "result": 7250, "unit": "µg/mL"}, {"measurement": "TH-302 administration reactions", "setting": "[2]", "result": "lip swelling and urticaria"}, {"measurement": "solubility", "setting": "[3]; 1% N,N-dimethylacetamide aqueous solution (volume), water, 1%N,N-dimethlyacetamide aqueous solution (volume), read-out: Solubility", "result": 8050, "unit": "µg/mL"}, {"measurement": "solubility", "setting": "[3]; 1% ethanol aqueous solution (volume), water, read-out: Solubility", "result": 6580, "unit": "µg/mL"}, {"measurement": "solubility", "setting": "[3]; 1% polyethylene glycol aqueous solution (volume), water, read-out: Solubility", "result": 6810, "unit": "µg/mL"}, {"measurement": "solubility", "setting": "[3]; 20% ethanol aqueous solution (volume), aqueous with cosolvent or surfactant or cyclodextrin, read-out: Solubility", "result": 8400, "unit": "µg/mL"}, {"measurement": "solubility", "setting": "[3]; aqueous with cosolvent or surfactant or cyclodextrin, 1%Tween 80 aqueous solution (volume), read-out: Solubility", "result": 7210, "unit": "µg/mL"}, {"measurement": "solubility", "setting": "[3]; aqueous with cosolvent or surfactant or cyclodextrin, 20% tert-butanol aqueous solution, volume ratio, commercial TH-302, read-out: Solubility", "result": 10000, "unit": "µg/mL"}, {"measurement": "solubility", "setting": "[3]; aqueous with cosolvent or surfactant or cyclodextrin, 30% tert-butanol in water, mass ratio, TH-302 synthesized by the applicants, read-out: Solubility", "result": 42000, "unit": "µg/mL"}, {"measurement": "solubility", "setting": "[3]; aqueous with cosolvent or surfactant or cyclodextrin, 40% tert-butanol aqueous solution, volume ratio, commercial TH-302, read-out: Solubility", "result": "> 40000", "unit": "µg/mL"}, {"measurement": "solubility", "setting": "[3]; organic solvent or mixture, 60% tert-butanol in water, mass ratio, TH-302 synthesized by the applicants, read-out: Solubility", "result": 146000, "unit": "µg/mL"}, {"measurement": "solubility", "setting": "[3]; organic solvent or mixture, 70% tert-butanol in water, mass ratio, TH-302 synthesized by the applicants, read-out: Solubility", "result": 165000, "unit": "µg/mL"}, {"measurement": "solubility", "setting": "[3]; organic solvent or mixture, 75% tert-butanol in water, mass ratio, TH-302 synthesized by the applicants, read-out: Solubility", "result": 151000, "unit": "µg/mL"}, {"measurement": "solubility", "setting": "[3]; organic solvent or mixture, 80% tert-butanol aqueous solution, volume ratio, commercial TH-302, read-out: Solubility", "result": 88500, "unit": "µg/mL"}, {"measurement": "solubility", "setting": "[3]; organic solvent or mixture, 80% tert-butanol in water, mass ratio, TH-302 synthesized by the applicants, read-out: Solubility", "result": 143000, "unit": "µg/mL"}, {"measurement": "solubility", "setting": "[3]; organic solvent or mixture, 90% tert-butanol aqueous solution, volume ratio, commercial TH-302, read-out: Solubility", "result": 76400, "unit": "µg/mL"}, {"measurement": "solubility", "setting": "[3]; organic solvent or mixture, 90% tert-butanol in water, mass ratio, TH-302 synthesized by the applicants, read-out: Solubility", "result": 66600, "unit": "µg/mL"}, {"measurement": "solubility", "setting": "[3]; organic solvent or mixture, 90% tert-butanol/10% ethanol, volume ratio, commercial TH-302, read-out: Solubility", "result": 10700, "unit": "µg/mL"}, {"measurement": "solubility", "setting": "[3]; organic solvent or mixture, 95% tert-butanol aqueous solution, volume ratio, commercial TH-302, read-out: Solubility", "result": 32300, "unit": "µg/mL"}, {"measurement": "solubility", "setting": "[3]; organic solvent or mixture, 95% tert-butanol in water, mass ratio, TH-302 synthesized by the applicants, read-out: Solubility", "result": 36800, "unit": "µg/mL"}, {"measurement": "solubility", "setting": "[3]; organic solvent or mixture, 95% tert-butanol/5% ethanol, volume ratio, commercial TH-302, read-out: Solubility", "result": 9980, "unit": "µg/mL"}, {"measurement": "solubility", "setting": "[3]; organic solvent or mixture, 100% tert-butanol, TH-302 synthesized by the applicants, read-out: Solubility", "result": 11800, "unit": "µg/mL"}, {"measurement": "solubility", "setting": "[3]; organic solvent or mixture, tert-butanol, commercial TH-302, read-out: Solubility", "result": 8980, "unit": "µg/mL"}, {"measurement": "solubility", "setting": "[3]; pH 2, simulated gastric fluid, pH2, HCl solution, read-out: Solubility", "result": 6940, "unit": "µg/mL"}, {"measurement": "solubility", "setting": "[3]; pH 4, aqueous buffer, pH4, phthalate buffer solution, read-out: Solubility", "result": 7220, "unit": "µg/mL"}, {"measurement": "solubility", "setting": "[3]; pH 6, aqueous buffer, pH6, phosphate buffer solution, read-out: Solubility", "result": 5810, "unit": "µg/mL"}, {"measurement": "solubility", "setting": "[3]; pH 7, aqueous buffer, pH7, phosphate buffer solution, read-out: Solubility", "result": 5870, "unit": "µg/mL"}, {"measurement": "solubility", "setting": "[3]; pH 8, aqueous buffer, pH8, phosphate buffer solution, read-out: Solubility", "result": 5940, "unit": "µg/mL"}, {"measurement": "solubility", "setting": "[3]; pH 10, aqueous buffer, pH10, borate buffer solution, read-out: Solubility", "result": 6070, "unit": "µg/mL"}, {"measurement": "solubility", "setting": "[3]; tert-butanol-water mixed solvent, aqueous with cosolvent or surfactant or cyclodextrin, summary statement, maximum reached, read-out: solubility in the tert-butanol-water mixed solvent system", "result": "≥ 160000", "unit": "µg/mL"}, {"measurement": "HPLC purity", "setting": "[4]", "result": 95.87, "unit": "%"}]}]}
